For this test, the target named is T1, NPR-B (Homo sapiens, UniProt P20594).
T1 construct: gene NPR2; endogenous membrane guanylyl cyclase receptor in intact CEPI-17-CL4 cells; NPR-A also expressed; homodimer
T1 sequence (P20594 23-1047): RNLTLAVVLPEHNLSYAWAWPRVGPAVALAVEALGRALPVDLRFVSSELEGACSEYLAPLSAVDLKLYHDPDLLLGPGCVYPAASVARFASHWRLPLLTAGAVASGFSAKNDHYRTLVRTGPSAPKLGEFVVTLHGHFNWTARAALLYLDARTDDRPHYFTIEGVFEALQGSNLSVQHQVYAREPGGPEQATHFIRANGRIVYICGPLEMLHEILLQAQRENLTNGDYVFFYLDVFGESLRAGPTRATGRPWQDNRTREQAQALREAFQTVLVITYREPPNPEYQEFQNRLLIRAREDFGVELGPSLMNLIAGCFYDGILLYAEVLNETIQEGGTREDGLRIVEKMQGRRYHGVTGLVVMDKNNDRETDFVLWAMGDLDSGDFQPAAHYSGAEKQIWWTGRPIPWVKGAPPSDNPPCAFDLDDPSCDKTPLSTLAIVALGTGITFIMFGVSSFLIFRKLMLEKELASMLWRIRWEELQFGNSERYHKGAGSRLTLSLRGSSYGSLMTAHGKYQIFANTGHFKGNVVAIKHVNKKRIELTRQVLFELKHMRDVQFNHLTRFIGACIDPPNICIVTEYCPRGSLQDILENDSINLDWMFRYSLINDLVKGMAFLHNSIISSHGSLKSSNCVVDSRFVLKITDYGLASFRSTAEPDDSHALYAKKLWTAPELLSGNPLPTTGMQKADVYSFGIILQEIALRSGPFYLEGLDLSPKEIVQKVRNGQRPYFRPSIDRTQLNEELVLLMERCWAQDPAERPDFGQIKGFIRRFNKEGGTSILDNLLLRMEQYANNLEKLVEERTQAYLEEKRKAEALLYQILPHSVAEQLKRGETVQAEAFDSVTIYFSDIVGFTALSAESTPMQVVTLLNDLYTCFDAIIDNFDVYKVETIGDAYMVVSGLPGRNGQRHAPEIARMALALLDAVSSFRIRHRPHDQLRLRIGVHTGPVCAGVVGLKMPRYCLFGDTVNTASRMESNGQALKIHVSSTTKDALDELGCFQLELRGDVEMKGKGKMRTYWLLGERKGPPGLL
In words: inhibition of CNP fragment-induced cGMP accumulation in CEPI-17-CL4 cells, enzyme immunoassay. The class given is cell-based. The following applies: 30 nM CNP fragment as agonist, 1 mM IBMX, 23 °C, 20 min pre-incubation; partial inhibition; native cells expressing NPR-A and NPR-B; compound described as NPR-A antagonist.

Broadly, the Ki is a measure of affinity in units of concentration, obtained from inhibition or displacement.

`O=C1Nc2ccccc2C1=O` [isatin]: the affinity corresponds to a Ki of 5.3 ± 1.7 µM.

Source of the values: paper PMC2903464, “NPR-B natriuretic peptide receptors in human corneal epithelium: mRNA, immunohistochemistochemical, protein, and biochemical pharmacology studies” (Molecular Vision, 2010).
